Legend:
PI3K = PI3K (Homo sapiens, UniProt P42336); assay: Fluorescence polarization assay for PI3K; format: biochemical; details: PI3Kα; read-out: PI3Kα IC50;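 further: PI3K kinase reaction on PIP2 with ATP, 30-60 min, product sensed by GST-GRP with red probe in fluorescence polarization (mP), controls without enzyme and at zero time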
prostate line LNCap = assay: In vitro cell culture growth assay (MTS), LNCap; format: cell-based, human; details: Homo sapiens, LNCaP, 72 h, LNCap cells, three days after drug treatment;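 further: viable cell density read by absorbance at 490 nm, growth expressed as percent of vehicle-treated cells on the same plate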
breast line MDA468 = assay: In vitro cell culture growth assay (MTS), MDA468; format: cell-based, human; details: Homo sapiens, 72 h, MDA468 cells, three days after drug treatment
Method in brief: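 Steps: plate cells; add inhibitors the next day; incubate 3 days; add MTS dye, which viable cells convert metabolically; measure absorbance at 490 nm; calculate percent of control growth relative to vehicle-treated cells in the same plate.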

Sequence of PI3K (P42336 whole entry): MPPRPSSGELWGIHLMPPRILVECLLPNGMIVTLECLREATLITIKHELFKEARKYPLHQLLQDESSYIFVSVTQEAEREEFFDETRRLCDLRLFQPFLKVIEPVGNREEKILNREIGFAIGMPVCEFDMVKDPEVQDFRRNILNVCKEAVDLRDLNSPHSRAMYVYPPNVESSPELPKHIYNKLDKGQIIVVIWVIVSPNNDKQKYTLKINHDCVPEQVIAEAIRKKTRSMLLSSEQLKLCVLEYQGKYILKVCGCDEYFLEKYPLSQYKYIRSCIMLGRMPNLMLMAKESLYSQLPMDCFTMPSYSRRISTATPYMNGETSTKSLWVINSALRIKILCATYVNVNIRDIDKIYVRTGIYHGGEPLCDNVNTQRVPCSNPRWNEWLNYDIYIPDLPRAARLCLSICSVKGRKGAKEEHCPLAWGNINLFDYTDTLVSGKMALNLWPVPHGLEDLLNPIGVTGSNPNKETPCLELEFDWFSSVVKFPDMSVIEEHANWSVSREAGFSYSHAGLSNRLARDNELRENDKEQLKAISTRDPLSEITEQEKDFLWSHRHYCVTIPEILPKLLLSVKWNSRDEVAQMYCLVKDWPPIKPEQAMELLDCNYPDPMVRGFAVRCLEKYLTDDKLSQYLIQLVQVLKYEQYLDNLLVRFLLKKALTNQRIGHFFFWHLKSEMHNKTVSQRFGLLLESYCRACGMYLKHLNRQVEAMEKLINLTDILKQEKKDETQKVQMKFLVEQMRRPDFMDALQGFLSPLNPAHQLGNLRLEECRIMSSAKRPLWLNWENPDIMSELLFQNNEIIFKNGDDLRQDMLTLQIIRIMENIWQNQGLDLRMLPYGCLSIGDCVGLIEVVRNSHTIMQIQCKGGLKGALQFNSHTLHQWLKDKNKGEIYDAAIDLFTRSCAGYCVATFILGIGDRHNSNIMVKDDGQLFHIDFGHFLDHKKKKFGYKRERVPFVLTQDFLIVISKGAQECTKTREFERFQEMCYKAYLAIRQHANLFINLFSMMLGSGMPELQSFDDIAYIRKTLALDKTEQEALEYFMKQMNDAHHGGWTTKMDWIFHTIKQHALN
Sequence of PI3K (P27986 whole entry partner): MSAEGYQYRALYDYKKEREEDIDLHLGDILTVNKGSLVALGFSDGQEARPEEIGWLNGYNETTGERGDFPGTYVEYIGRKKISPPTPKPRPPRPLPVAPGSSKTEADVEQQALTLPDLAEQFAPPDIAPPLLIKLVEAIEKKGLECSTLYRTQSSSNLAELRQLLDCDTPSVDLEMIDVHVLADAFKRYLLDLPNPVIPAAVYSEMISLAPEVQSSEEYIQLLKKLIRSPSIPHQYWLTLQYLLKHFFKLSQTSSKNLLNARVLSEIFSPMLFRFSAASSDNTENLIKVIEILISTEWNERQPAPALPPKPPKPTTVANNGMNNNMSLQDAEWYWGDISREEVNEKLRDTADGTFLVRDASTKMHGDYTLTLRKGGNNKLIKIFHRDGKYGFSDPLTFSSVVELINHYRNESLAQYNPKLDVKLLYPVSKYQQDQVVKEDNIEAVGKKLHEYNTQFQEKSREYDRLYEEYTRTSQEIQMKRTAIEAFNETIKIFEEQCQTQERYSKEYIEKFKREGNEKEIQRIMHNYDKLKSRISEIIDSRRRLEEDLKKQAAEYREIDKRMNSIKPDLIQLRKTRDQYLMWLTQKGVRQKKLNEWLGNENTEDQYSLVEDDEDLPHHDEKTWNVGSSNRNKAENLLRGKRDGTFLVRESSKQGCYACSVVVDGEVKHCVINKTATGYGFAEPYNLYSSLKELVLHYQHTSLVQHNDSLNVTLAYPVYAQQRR

| Structure (SMILES) | IC50 (PI3K) [nM] | IC50 (prostate line LNCap) [nM] | IC50 (breast line MDA468) [nM] |
| --- | --- | --- | --- |
| CN(C)c1ccc(-c2nc(N3CCOCC3)c3cnn(-c4ccccc4)c3n2)cc1 [Compound 114] | 393 | 15000 | 27000 |
| O=C(Nc1ccc(-c2nc(N3CCOCC3)c3cnn(C4CCN(Cc5cccnc5)CC4)c3n2)cc1)Nc1ccccn1 [Compound 588, 1-(4-{4-morpholin-4-yl-1-[1-(pyridin-3-ylmethyl)piperidin-4-yl]-1H-pyrazolo[3,4-d]pyrimidin-6-yl}phenyl)-3-pyridin-2-ylurea] | 90 | 330 | 1800 |
| CN(C)C1CCC(n2ncc3c(N4CCOCC4)nc(-c4ccc5[nH]ccc5c4)nc32)CC1 (stereo not drawn) [Compound 150] | 1950 | 300 | 2100 |
| Cc1ccc(CN2CCC(n3ncc4c(N5CCOCC5)nc(-c5ccc6[nH]ccc6c5)nc43)CC2)cc1 [Example 56] | 425 | 2000 | 2700 |
| NCC(=O)Nc1ccc(-c2nc(N3CCOCC3)c3cn[nH]c3n2)cc1 [Compound 528, N-[4-(4-morpholin-4-yl-1H-pyrazolo[3,4-d]pyrimidin-6-yl)phenyl]glycinamide] | 128 | 9000 | 11000 |
| CC(C)C(=O)N1CCC(n2ncc3c(N4CCOCC4)nc(-c4ccc(NC(=O)NC5CC5)cc4)nc32)CC1 [Compound 824, 1-cyclopropyl-3-{4-[1-(1-isobutyrylpiperidin-4-yl)-4-morpholin-4-yl-1H-pyrazolo[3,4-d]pyrimidin-6-yl]phenyl}urea] | 2030 | 110 | 700 |
| OCCCN1CCC(n2ncc3c(N4CCOCC4)nc(-c4ccc5[nH]ccc5c4)nc32)CC1 [Compound 497, 3-{4-[6-(1H-indol-5-yl)-4-morpholin-4-yl-1H-pyrazolo[3,4-d]pyrimidin-1-yl]piperidin-1-yl}propan-1-ol] | 7290 | 2500 | 3000 |
| Nc1ccnc(-c2nc(N3CCOCC3)c3cnn(-c4ccccc4)c3n2)c1 [Compound 437, 2-(4-morpholin-4-yl-1-phenyl-1H-pyrazolo[3,4-d]pyrimidin-6-yl)pyridin-4-amine] | 1460 | 60000 | 60000 |
| c1ccc(-n2ncc3c(N4CCOCC4)nc(-c4ccc5sccc5c4)nc32)cc1 [Compound 105] | 3080 | 60000 | 60000 |
| CCNC(=O)Nc1ccc(-c2nc(N3CCOCC3)c3cnn(C4CCN(CCCCO)CC4)c3n2)cc1 [Compound 745, 1-ethyl-3-(4-{1-[1-(4-hydroxybutyl)piperidin-4-yl]-4-morpholin-4-yl-1H-pyrazolo[3,4-d]pyrimidin-6-yl}phenyl)urea] | 550 | 1300 | 2900 |
| COC(=O)Nc1ccc(-c2nc(N3CCOCC3)c3cnn(C4CCN(C(=O)OC(C)C)CC4)c3n2)cc1 [Compound 806, isopropyl 4-(6-{4-[(methoxycarbonyl)amino]phenyl}-4-morpholin-4-yl-1H-pyrazolo[3,4-d]pyrimidin-1-yl)piperidine-1-carboxylate] | 4550 | 700 | 900 |
| CNC(=O)Nc1ccc(-c2nc(N3CCOCC3)c3cn[nH]c3n2)cc1Cl [Compound 940, 1-[2-chloro-4-(4-morpholin-4-yl-1H-pyrazolo[3,4-d]pyrimidin-6-yl)phenyl]-3-methylurea] | 401 | 1950 | 6000 |
| CNC(=O)Nc1ccc(-c2nc(N3CCOCC3)c3cnn(C4CCN(C(=O)OCC(C)(C)C)CC4)c3n2)cc1 [Compound 876, 2,2-dimethylpropyl 4-(6-{4-[(methylcarbamoyl)amino]phenyl}-4-morpholin-4-yl-1H-pyrazolo[3,4-d]pyrimidin-1-yl)piperidine-1-carboxylate] | 87 | 110 | 350 |
| CN1CCC(C(=O)Nc2ccc(-c3nc(N4CCOCC4)c4cn[nH]c4n3)cc2)CC1 [Compound 530, 1-methyl-N-[4-(4-morpholin-4-yl-1H-pyrazolo[3,4-d]pyrimidin-6-yl)phenyl]piperidine-4-carboxamide] | 885 | 5300 | 22000 |
| CN1CCC(C(=O)Nc2ccc(-c3nc(N4CCOCC4)c4cn[nH]c4n3)cc2)CC1 [Compound 284, 1-methyl-N-[4-(4-morpholin-4-yl-1H-pyrazolo[3,4-d]pyrimidin-6-yl)phenyl]piperidine-4-carboxamide] | 885 | 5300 | 22000 |
| Fc1cc(F)cc(-c2nc(N3CCOCC3)c3cnn(C4CCN(Cc5ccccc5)CC4)c3n2)c1 [Compound 88] | 2190 | 60000 | 58000 |
| O=C(Nc1ccc(-c2nc(N3CCOCC3)c3cnn(-c4ccccc4)c3n2)cc1)C1CCNCC1 [Compound 140] | 131 | 2900 | 1300 |
| O=C(Nc1ccc(-c2nc(N3CCOCC3)c3cn[nH]c3n2)cc1)c1cccnc1 [Compound 524, N-[4-(4-morpholin-4-yl-1H-pyrazolo[3,4-d]pyrimidin-6-yl)phenyl]nicotinamide] | 1170 | 7200 | 60000 |
| COCCCNC(=O)Nc1ccc(-c2nc(N3CCOCC3)c3cnn(C4CCN(Cc5ccccc5)CC4)c3n2)cc1 [Compound 515, 1-{4-[1-(1-benzylpiperidin-4-yl)-4-morpholin-4-yl-1H-pyrazolo[3,4-d]pyrimidin-6-yl]phenyl}-3-(3-methoxypropyl)urea] | 753 | 600 | 3200 |
| CONC(=O)Nc1ccc(-c2nc(N3CCOCC3)c3cnn(-c4ccccc4)c3n2)cc1 [Compound 541, 1-methoxy-3-[4-(4-morpholin-4-yl-1-phenyl-1H-pyrazolo[3,4-d]pyrimidin-6-yl)phenyl]urea] | 404 | 1800 | 5000 |

Now those with a lower IC50 (PI3K), led by results:

| IC50 (PI3K) [nM] | IC50 (prostate line LNCap) [nM] | Structure (SMILES) | IC50 (breast line MDA468) [nM] |
| --- | --- | --- | --- |
| 80 | 1200 | CNC(=O)Nc1ccc(-c2nc(N3CCOCC3)c3cnn(C4CC[S+]([O-])CC4)c3n2)cc1 (stereo not drawn) [Compound 868, 1-methyl-3-{4-[4-morpholin-4-yl-1-(1-oxidotetrahydro-2H-thiopyran-4-yl)-1H-pyrazolo[3,4-d]pyrimidin-6-yl]phenyl}urea] | 720 |
| 72 | 140 | C=CCN1CCC(n2ncc3c(N4CCOCC4)nc(-c4ccc(NC(=O)NC)cc4)nc32)CC1 [Compound 799, 1-{4-[1-(1-allylpiperidin-4-yl)-4-morpholin-4-yl-1H-pyrazolo[3,4-d]pyrimidin-6-yl]phenyl}-3-methylurea] | 510 |
| 56 | 105 | CC(C)(C)OC(=O)N1CCC(n2ncc3c(N4CCOCC4)nc(-c4ccc(NC(=O)Nc5cccnc5)cc4)nc32)CC1 [Compound 770, tert-butyl 4-(4-morpholin-4-yl-6-{4-[(pyridin-3-ylcarbamoyl)amino]phenyl}-1H-pyrazolo[3,4-d]pyrimidin-1-yl)piperidine-1-carboxylate] | 260 |
| 42 | 170 | CNC(=O)Nc1ccc(-c2nc(N3CCOCC3)c3cnn(C4CCN(C(=S)NC)CC4)c3n2)cc1 [Compound 760, N-methyl-4-(6-{4-[(methylcarbamoyl)amino]phenyl}-4-morpholin-4-yl-1H-pyrazolo[3,4-d]pyrimidin-1-yl)piperidine-1-carbothioamide] | 50 |
| 37 | 650 | Nc1ncc(-c2nc(N3CCOCC3)c3cnn(C4CCN(C(=O)c5cccnc5)CC4)c3n2)cn1 [Example 215, 5-{4-morpholin-4-yl-1-[1-(pyridin-3-ylcarbonyl)piperidin-4-yl]-1H-pyrazolo[3,4-d]pyrimidin-6-yl}pyrimidin-2-amine] | 1300 |
| 34 | 52 | CNC(=O)Nc1ccc(-c2nc(N3CCOCC3)c3cnn(C4CCN(C(=O)c5ccc(Br)cc5)CC4)c3n2)cc1 [Compound 606, 1-(4-{1-[1-(4-bromobenzoyl)piperidin-4-yl]-4-morpholin-4-yl-1H-pyrazolo[3,4-d]pyrimidin-6-yl}phenyl)-3-methylurea] | 180 |
| 30 | 6.8 | CCOC(=O)N1CCC(n2ncc3c(N4CCOC[C@@H]4C)nc(-c4ccc(NC(=O)Nc5ccc(N6CCOCC6)cc5)cc4)nc32)CC1 [Compound 899, ethyl 4-{4-[(3S)-3-methylmorpholin-4-yl]-6-(4-{[(4-morpholin-4-ylphenyl)carbamoyl]amino}phenyl)-1H-pyrazolo[3,4-d]pyrimidin-1-yl}piperidine-1-carboxylate] | 150 |
| 18 | 60 | CNC(=O)Nc1ccc(-c2nc(N3CCOCC3)c3cnn(C4CCN(Cc5ccc(Cl)cc5)CC4)c3n2)cc1 [Example 394, 1-(4-{1-[1-(4-chlorobenzyl)piperidin-4-yl]-4-morpholin-4-yl-1H-pyrazolo[3,4-d]pyrimidin-6-yl}phenyl)-3-methylurea] | 300 |
| 18 | 40 | CCOC(=O)N1CCC(n2ncc3c(N4CCOC[C@@H]4C)nc(-c4ccc(NC(=O)Nc5ccncc5)cc4)nc32)CC1 [Compound 898, ethyl 4-(4-[(3S)-3-methylmorpholin-4-yl]-6-{4-[(pyridin-4-ylcarbamoyl)amino]phenyl}-1H-pyrazolo[3,4-d]pyrimidin-1-yl)piperidine-1-carboxylate] | 380 |
| 12 | 3.9 | O=C(Nc1ccc(-c2nc(N3CCOCC3)c3cnn(C4CCN(C(=O)OCCF)CC4)c3n2)cc1)Nc1cccnc1 [Compound 879, 2-fluoroethyl 4-(4-morpholin-4-yl-6-{4-[(pyridin-3-ylcarbamoyl)amino]phenyl}-1H-pyrazolo[3,4-d]pyrimidin-1-yl)piperidine-1-carboxylate] | 34 |

Source: patent publication US20080234262A1 (Wyeth, priority 2007, published 2008)
